Data set [1] has as its system Trypanosoma brucei brucei. As to the kind of experiment: microbe, parasite or virus in culture. Type of data set: functional, organism-based, STIB 795.
Description: DNDI: Inhibition of Human African Trypanosomiasis (HAT), STIB 795, in vitro
A short description of data set [2]: DNDI: Cytotoxicity against human MRC-5 lung fibroblast cells. The note with it: IC50.

Results on 52 compounds are retold here after ChEMBL document CHEMBL2094269, “WEHI/Eskitis Trypanosoma b. brucei screening data”.

“And” between values parts separate entries of the source, which are not always exact repeats. Equal entries are not always repeated. Some results are limits rather than exact numbers.

For orientation: IC50 means the concentration at which inhibition is half-maximal. A high value points to weaker potency. On to `CCOc1ccc(OCc2ccc(C(=O)N3CCCC(C)C3)cc2)cc1` (configuration not stated), for which the IC50 in data set [1] (Trypanosoma brucei, STIB 795) was 2.56 µM; in data set [2], over 41.7 µM.

Consider `Cc1ccc(C23CC4CC(CC(NC(=O)NCCN(C)C)(C4)C2)C3)cc1`, for which the IC50 in data set [1] (Trypanosoma brucei, STIB 795) is 4.01 µM; in data set [2] it was over 20.8 µM.

In the case of `COc1ccc(C(=O)O/N=C(\N)c2ccc(OC)c(OC)c2)c(OC)c1`, the concentration for half-maximal inhibition (IC50) in data set [1] (Trypanosoma brucei, STIB 795) is 1.33 µM; in data set [2] it was over 41.7 µM.

Turning to `Cc1cc(C)nc(C(=N)Nc2nc(-c3ccccn3)cc3ccccc23)n1`, the IC50 in data set [1] (Trypanosoma brucei, STIB 795) turned out to be 0.245 µM; in data set [2], 0.216 µM.

Regarding `N=c1n(CCO)c2ccccc2n1CCOc1ccc(Cl)cc1Cl`, the IC50 in data set [1] (Trypanosoma brucei, STIB 795) came to 2.63 µM; in data set [2], 8.93 µM.

For the compound `CCOc1c(Cl)cc(CNCCc2c[nH]c3ccccc23)cc1OC`, the IC50 is 5.09 µM in data set [1] (Trypanosoma brucei, STIB 795) and over 41.7 µM in data set [2].

As to `COc1ccccc1-c1nc(SCC(=O)c2ccc(O)c(O)c2)n[nH]1`, the IC50 is 2.69 µM in data set [1] (Trypanosoma brucei, STIB 795) and over 41.7 µM in data set [2].

On to `COc1cc(CNCCO)cc(Br)c1OCc1ccccc1`, for which the half-inhibitory concentration (IC50) in data set [1] (Trypanosoma brucei, STIB 795) was 4.73 µM; in data set [2] it was over 41.7 µM.

With `Cc1nnc(-c2ccccc2)c(=O)n1/N=C/c1c(O)ccc2ccccc12`, the half-maximal inhibitory concentration (IC50) in data set [1] was 6.05 µM; in data set [1] (Trypanosoma brucei, STIB 795) it was 6.25 µM; in data set [2], over 4.17 µM.

As to `Oc1c(C(c2ccccc2Cl)N2CCOCC2)ccc2cccnc12` (configuration not stated), the IC50 was 5.59 µM in data set [1] (Trypanosoma brucei, STIB 795) and over 20.8 µM in data set [2].

Regarding `CC(NCCC(c1ccccc1)C1CCOC(C)(C)C1)c1ccccc1` (configuration not stated), the half-maximal inhibitory concentration (IC50) in data set [1] (Trypanosoma brucei, STIB 795) was 4.93 µM; in data set [2], over 41.7 µM.

With `CC(C)(C)n1ncc(SC/C(=N\O)c2ccccc2)c(Cl)c1=O`, the IC50 in data set [1] (Trypanosoma brucei, STIB 795) is 2.37 µM; in data set [2], over 41.7 µM.

For `Cc1[nH]c2ccc(OC(F)(F)F)cc2c1CCNCC1CC=CCC1` (configuration not stated), the IC50 in data set [1] (Trypanosoma brucei, STIB 795) turned out to be 2.89 µM; in data set [2], 7.85 µM.

Turning to `O=C(CC(Nc1ccc2ccccc2c1)c1ccncc1)c1cccnc1` (configuration not stated), the half-inhibitory concentration (IC50) was 0.827 µM in data set [1] (Trypanosoma brucei, STIB 795) and over 41.7 µM in data set [2].

On to `COc1ccc(C(CC(=O)c2ccncc2)SCc2ccco2)cc1` (configuration not stated), for which the IC50 is 4.3 µM in data set [1] (Trypanosoma brucei, STIB 795) and over 41.7 µM in data set [2].

For the compound `CN1CCN(C2Cc3ccccc3Sc3ccc(N(C)C)cc32)CC1` (configuration not stated), the IC50 is 5.04 µM in data set [1] (Trypanosoma brucei, STIB 795) and over 41.7 µM in data set [2].

As for `CCOc1cc(CNCCO)cc(Cl)c1OCc1ccccc1F`, the IC50 in data set [1] (Trypanosoma brucei, STIB 795) is 2.43 µM; in data set [2] it was over 20.8 µM.

Turning to `CCN1/C(=C\C=C/C2C=Cc3ccccc3N2CC)C=Cc2ccccc21` (configuration not stated), the IC50 in data set [1] (Trypanosoma brucei, STIB 795) came out at 0.408 µM; in data set [2], 5.14 µM.

As for `CCN(CC)CCCCN(CCc1ccccc1)Cc1ccc(O)cc1`, the half-maximal inhibitory concentration (IC50) was 4.55 µM in data set [1] (Trypanosoma brucei, STIB 795) and over 41.7 µM in data set [2].

With `Cc1cc(C(=O)N/N=C/c2c(O)ccc3ccccc23)c2ccccc2n1`, the half-inhibitory concentration (IC50) was 5.24 µM in data set [1] (Trypanosoma brucei, STIB 795) and over 4.17 µM in data set [2].

As for `CCc1ccc(NS(=O)(=O)c2cc(-c3cc(C)n[nH]3)ccc2C)cc1`, the half-maximal inhibitory concentration (IC50) in data set [1] (Trypanosoma brucei, STIB 795) was 1.23 µM; in data set [2], over 4.17 µM.

Regarding `Cc1cccc(C)c1C(O)(CC(O)CNC(C)C)c1c(C)cccc1C` (configuration not stated), the half-maximal inhibitory concentration (IC50) is 4.92 µM in data set [1] (Trypanosoma brucei, STIB 795) and over 41.7 µM in data set [2].

`CC(C)NCC(O)CC(O)(c1ccccc1)c1ccc(C(C)(C)C)cc1` (configuration not stated): the half-inhibitory concentration (IC50) in data set [1] (Trypanosoma brucei, STIB 795) is 5.12 µM; in data set [2] it was over 20.8 µM.

Turning to `Cc1ccc2oc(SCC(=O)Nc3nc4ccccc4s3)nc2n1`, the IC50 in data set [1] (Trypanosoma brucei, STIB 795) was 2.16 µM; in data set [2] it was over 20.8 µM.

`O=C(NC(=S)NNC(=S)N/N=C/c1ccccc1)c1ccccc1`: the IC50 in data set [1] (Trypanosoma brucei, STIB 795) is 4.16 µM; in data set [2] it was over 20.8 µM.

As to `CN1CCN(Cc2cn(-c3ccc(Cl)cc3)c3ccc(F)cc23)CC1`, the IC50 in data set [1] (Trypanosoma brucei, STIB 795) was 5.2 µM; in data set [2], over 41.7 µM.

Regarding `CCOc1cc2c(cc1OCC)C(/C(Cl)=C/c1ccccc1)NCC2` (configuration not stated), the half-inhibitory concentration (IC50) in data set [1] (Trypanosoma brucei, STIB 795) is 5 µM; in data set [2], over 41.7 µM.

As to `CC(CON1C(N)=NC(N)=NC1(C)C)Cc1cc(Cl)ccc1Cl` (configuration not stated), the IC50 in data set [1] (Trypanosoma brucei, STIB 795) is 4.67 µM; in data set [2], over 20.8 µM.

Consider `COc1ccc(/C=N/NC(=O)C(OC)c2ccccc2)c(OC)c1OC` (configuration not stated), for which the IC50 in data set [1] (Trypanosoma brucei, STIB 795) is 2.27 µM; in data set [2] it was over 4.17 µM.

For the compound `COc1ccc(/C(N)=N/OC(=O)C23CC4CC(CC(C4)C2)C3)cc1OC`, the IC50 is 0.774 µM in data set [1] (Trypanosoma brucei, STIB 795) and over 41.7 µM in data set [2].

As for `CC1(C)N=C(N)N=C(N)N1OCc1ccc(F)c(-c2ccc(F)cc2)c1`, the IC50 in data set [1] (Trypanosoma brucei, STIB 795) was at most 1.45 µM; in data set [2] it was over 2.08 µM.

As to `COc1cccc(C2=NC(c3cccnc3)NC(c3ccccc3O)C2)c1` (configuration not stated), the IC50 in data set [1] (Trypanosoma brucei, STIB 795) was 1.5 µM; in data set [2], over 20.8 µM.

On to `CS(=O)(=O)c1cccc(C(=O)Nc2nc(-c3ccccn3)cs2)c1`, for which the half-inhibitory concentration (IC50) in data set [1] (Trypanosoma brucei, STIB 795) is 0.498 µM; in data set [2], over 10.4 µM.

In the case of `CC1(C)CC(N2COc3c(cc(Cl)c4cccnc34)C2)CC(C)(C)N1`, the 50% inhibitory concentration (IC50) in data set [1] (Trypanosoma brucei, STIB 795) was 5.53 µM; in data set [2], over 20.8 µM.

`COc1cc(Cl)cc2c1Sc1ccccc1CC2N1CCNCC1` (configuration not stated): the 50% inhibitory concentration (IC50) in data set [1] (Trypanosoma brucei, STIB 795) is 4.17 µM; in data set [2], over 20.8 µM.

As to `Cc1ccnc(NC(c2ccc3cccnc3c2O)c2sccc2C)c1` (configuration not stated), the IC50 was 3.32 µM in data set [1] (Trypanosoma brucei, STIB 795) and over 20.8 µM in data set [2].

Turning to `Oc1c(C(Nc2ccccn2)c2ccccc2Cl)ccc2cccnc12` (configuration not stated), the IC50 in data set [1] (Trypanosoma brucei, STIB 795) was 9.28 µM; in data set [2] it was over 20.8 µM.

Consider `Cc1nnc(-c2cc(S(=O)(=O)NCc3ccc4c(c3)OCO4)c[nH]2)o1`, for which the IC50 in data set [1] (Trypanosoma brucei, STIB 795) was 5.42 µM; in data set [2] it was over 41.7 µM.

For the compound `CC(Cc1ccccc1)[n+]1[cH-]/c(=N\C(=N\Cc2ccccc2)N(C)C)on1` (configuration not stated), the 50% inhibitory concentration (IC50) in data set [1] (Trypanosoma brucei, STIB 795) was 0.83 µM; in data set [2], over 41.7 µM.

Regarding `C=CCn1c(-c2ccccc2Cl)nn(C2CCC3OCC2O3)c1=S` (configuration not stated), the IC50 in data set [1] (Trypanosoma brucei, STIB 795) is 3.79 µM; in data set [2] it was over 20.8 µM.

Consider `O=C(CC1(O)C(=O)Nc2ccc(Br)cc21)c1ccccc1F` (configuration not stated), for which the IC50 in data set [1] (Trypanosoma brucei, STIB 795) was 4.54 µM; in data set [2], over 41.7 µM.

With `CC(C)(C)c1cc(/C=N/Nc2nc3ccccc3[nH]2)cc(C(C)(C)C)c1O`, the half-maximal inhibitory concentration (IC50) in data set [1] (Trypanosoma brucei, STIB 795) is 0.485 µM; in data set [2], over 20.8 µM.

In the case of `CN(C)CCCN(C)Cc1ccccc1Sc1ccc2ccccc2c1`, the half-maximal inhibitory concentration (IC50) in data set [1] (Trypanosoma brucei, STIB 795) was 2.57 µM; in data set [2], over 41.7 µM.

As to `Cc1cc2c(c(=O)o1)C(c1ccc(Br)s1)C(C#N)=C(N)O2` (configuration not stated), the half-inhibitory concentration (IC50) was 5.05 µM and > 10.4 µM in data set [1]; over 41.7 µM in data set [2].

As to `COc1c(S(=O)(=O)c2ccc(C)c(F)c2)cnc2ccc(Cl)cc12`, the IC50 is 3.1 µM in data set [1] (Trypanosoma brucei, STIB 795) and over 20.8 µM in data set [2].

Regarding `Cc1cc(F)ccc1NC(=O)Nc1ccc(-c2noc(C3CCC3)n2)cc1`, the IC50 was 4.73 µM in data set [1] (Trypanosoma brucei, STIB 795) and over 41.7 µM in data set [2].

Take `Cc1cc(-c2ccco2)c(C#N)c(SCC(=O)c2ccc(O)c(O)c2)n1`: the IC50 in data set [1] is 0.756 µM; in data set [1] (Trypanosoma brucei, STIB 795), 0.791 µM; in data set [2] it was over 41.7 µM.

For the compound `COc1cc2nc(-c3cccnc3)nc(N3CCC[C@H]3CO)c2cc1OC`, the IC50 was 5.31 µM in data set [1] (Trypanosoma brucei, STIB 795) and over 20.8 µM in data set [2].

As for `CCN(CC)CCn1c(=N)n(CC(=O)c2ccc(C)cc2)c2ccccc21`, the half-maximal inhibitory concentration (IC50) in data set [1] is 4.97 µM; in data set [1] (Trypanosoma brucei, STIB 795), 4.72 µM; in data set [2] it was over 41.7 µM.

For `N=C(Nc1nc(-c2ccccn2)cc2ccccc12)c1cccc(Cl)c1`, the half-inhibitory concentration (IC50) in data set [1] (Trypanosoma brucei, STIB 795) is 6.02 µM; in data set [2] it was over 41.7 µM.

As to `CCC(/C=C1\Sc2ccccc2N1C)=C\c1sc2ccccc2[n+]1C`, the IC50 in data set [1] (Trypanosoma brucei, STIB 795) amounted to 0.403 µM; in data set [2], 2.28 µM.

Turning to `Cc1cc2nc(N/C(N)=N/C(=O)NC3CCCCC3)nc(C)c2cc1C`, the IC50 in data set [1] (Trypanosoma brucei, STIB 795) is 5.33 µM; in data set [2] it was over 41.7 µM.
